# In ChEMBL document CHEMBL4257515, “Assessment of the trifluoromethyl ketone functionality as an alternative zinc-binding group for selective HDAC6 inhibition” (Medchemcomm, 2018):
# Active and inactive are the calls of the source. No cut-off for these calls is given here.
# Legend:
# [1] = molecular target: T1, Protein deacetylase HDAC6 (Homo sapiens) (UniProt Q9UBN7); assay: Inhibition of full length recombinant human HDAC6 at 10 uM using Fluor-de-Lys deacetylase as substrate preincubated for 15 mins followed by substrate addition and measured after 60 mins by spectrofluorimetric method relative to control
# T1 sequence (whole entry): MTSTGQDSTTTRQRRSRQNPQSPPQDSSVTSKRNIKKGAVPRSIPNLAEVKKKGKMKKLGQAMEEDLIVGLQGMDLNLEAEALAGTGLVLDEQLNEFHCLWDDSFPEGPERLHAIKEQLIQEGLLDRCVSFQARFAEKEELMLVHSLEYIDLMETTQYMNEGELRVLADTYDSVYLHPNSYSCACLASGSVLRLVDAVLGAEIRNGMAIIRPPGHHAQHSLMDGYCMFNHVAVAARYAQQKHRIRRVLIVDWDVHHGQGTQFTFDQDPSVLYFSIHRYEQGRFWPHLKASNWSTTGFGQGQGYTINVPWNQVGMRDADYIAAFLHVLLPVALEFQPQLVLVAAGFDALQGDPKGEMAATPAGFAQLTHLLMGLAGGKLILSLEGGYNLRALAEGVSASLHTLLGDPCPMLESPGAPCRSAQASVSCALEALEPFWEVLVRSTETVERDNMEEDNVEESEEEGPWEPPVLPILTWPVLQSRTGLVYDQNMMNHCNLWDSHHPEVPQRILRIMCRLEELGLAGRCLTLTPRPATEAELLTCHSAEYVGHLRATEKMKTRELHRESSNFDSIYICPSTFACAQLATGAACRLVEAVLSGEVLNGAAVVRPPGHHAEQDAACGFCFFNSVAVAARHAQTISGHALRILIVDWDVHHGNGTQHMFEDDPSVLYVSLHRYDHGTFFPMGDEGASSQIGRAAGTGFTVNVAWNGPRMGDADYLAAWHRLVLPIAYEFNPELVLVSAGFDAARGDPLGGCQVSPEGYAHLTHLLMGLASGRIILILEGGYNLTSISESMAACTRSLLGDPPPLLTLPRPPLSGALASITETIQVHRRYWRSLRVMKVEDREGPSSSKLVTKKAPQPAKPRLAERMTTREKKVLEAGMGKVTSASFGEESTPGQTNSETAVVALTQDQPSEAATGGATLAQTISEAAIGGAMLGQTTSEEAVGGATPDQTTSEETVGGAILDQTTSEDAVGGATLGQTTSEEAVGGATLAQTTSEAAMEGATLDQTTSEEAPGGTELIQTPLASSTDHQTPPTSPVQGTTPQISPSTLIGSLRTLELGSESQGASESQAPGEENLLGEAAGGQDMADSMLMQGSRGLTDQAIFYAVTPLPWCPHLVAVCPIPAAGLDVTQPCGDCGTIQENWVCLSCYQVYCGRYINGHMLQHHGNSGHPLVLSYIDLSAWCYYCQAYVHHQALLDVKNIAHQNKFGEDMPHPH
# [2] = molecular target: T1, Protein deacetylase HDAC6 (Homo sapiens); assay: Inhibition of HDAC6 in human SKOV3 cells assessed as increase in acetylated tubulin levels at 1 uM after 1 hr by immunoblot method; format: cell-based
# SK-OV-3 [3] = assay: Antiproliferative activity against human SKOV3 cells at 10 uM measured every 2 hrs for 200 hrs by IncuCyte ZOOM cell confluence assay; format: functional, cell-based
# [4] = molecular target: T1, Protein deacetylase HDAC6 (Homo sapiens); assay: Inhibition of HDAC6 in human SKOV3 cells assessed as increase in acetylated tubulin levels at 1 to 50 uM after 1 hr by immunoblot method; format: cell-based
# [5] = molecular target: Histone deacetylase (Homo sapiens) (UniProt Q13547+O15379+Q9UBN7+Q92769+Q9UQL6+Q8WUI4+Q9BY41+Q96DB2+P56524+Q9UKV0+Q969S8); assay: Inhibition of nuclear HDAC in human SKOV3 cells assessed as increase in acetylated histone H3 levels at 1 to 50 uM after 1 hr by immunoblot method; format: cell-based
# SK-OV-3 [6] = assay: Antiproliferative activity against human SKOV3 cells at 1 to 50 uM measured every 2 hrs for 200 hrs by IncuCyte ZOOM cell confluence assay; format: functional, cell-based
SMILES,inhibition [1] [%],other results
O=C(NO)c1ccccc1,88,–
O=C(c1ccccc1)C(F)(F)F,0,–
O=C(CCCCCCC(=O)Nc1ccccc1)NO,–,Activity (SK-OV-3 [3]): Active

# The next lines start with results.
inhibition [1] [%],SMILES,other results
100,O=C(NO)c1ccc(Cn2c3c(c4cc(F)ccc42)C[S+]([O-])CC3)cc1 (stereo not given),inhibition [2]: Active
25,O=C(c1ccc(Cn2c3c(c4cc(F)ccc42)C[S+]([O-])CC3)cc1)C(F)(F)F (stereo not given),inhibition [4]: inactive; inhibition [5]: inactive; Activity (SK-OV-3 [6]): inactive
17,O=C(c1ccc(Cn2c3c(c4ccccc42)C[S+]([O-])CC3)cc1)C(F)(F)F (stereo not given),–
